Measured values published in US12491253B2, “Bicyclic peptide ligands specific for MT1-MMP” (BicycleRD Limited, priority 2018, dated 2025).

Target: MT1-MMP hemopexin domain (Homo sapiens, UniProt P50281)
Details: Human MT1-MMP FP direct binding; fluoresceinated bicyclic peptide titrated with hemopexin domain; molecular scaffold TBMB
Procedure: Direct Binding Fluorescence Polarisation or Anisotropy Assays are performed by titrating a constant concentration of fluorescent tracer (here, the fluoresceinated bicyclic peptide to be studied) with its binding partner (here, the MT1-MMP hemopexin domain). As the concentration of binding partner increases during the titration, the polarisation signal changes in proportion to the fraction of bound and unbound material. This allows determination of […] (Kd) quantitatively. Assay data can be fit using standard ligand binding equations.
The titrant (binding partner) concentration is varied from 0.1 nM up to typically 5 μM. The range is chosen such that the maximum change in fluorescent polarisation can be observed. Buffers employed are phosphate buffered saline in the presence of 0.01% Tween. Experiments were run in black 384 well low-bind/low volume plates (Corning 3820), and the fluorescent polarisation signal was measured using a BMG Pherastar FS plate reader. […] Fluoresceination may be performed on the N-terminal amino group of the peptide, which is separated from the bicycle core sequence by a sarcosine spacer (usually Sar5). This can be done during Fmoc solid phase synthesis or post-synthetically (after cyclisation with TBMB and purification) if the N-terminal amino group is unique to the peptide. Fluoresceination can also be performed on the C-terminus, usually on a Lysine introduced as the first C-terminal residue, which is then separated from the bicycle core sequence by a sarcosine spacer (usually Sar6). Thus, N-terminal tracers can have a molecular format described as Fluo-Gly-Sar6-A (BicycleCoreSequence), and (BicycleCoreSequence)-A-Sar6-K(Fluo) for a C-terminally fluoresceinated construct.
Fluorescent tracers used in the Examples include BCY1323-Sar6-K(FI), BCY1326-Sar6-K(FI), BCY3418-Sar6-K(FI), BCY3422-K(FI), and BCY1329-Sar6-K(FI).

## fluoresceinated bicyclic peptide tracer on TBMB, used as BCY1323-Sar6-K(FI); sequence not given
  Kd: 35.9 ± 6.65 nM

## fluoresceinated bicyclic peptide tracer on TBMB, used as BCY1326-Sar6-K(FI); sequence not given
  Kd: 218 nM

## fluoresceinated bicyclic peptide tracer on TBMB, used as BCY1329-Sar6-K(FI); sequence not given
  Kd: 22.1 ± 11 nM
